Results published in US20250099485A1, “COMPOSITIONS FOR PROMOTING HAIR GROWTH” (ESTETRA SRL, priority 2021, published 2025).

How the values were obtained:
[1] = female, Lister Hooded, rat, in vivo, po, 15 mg/kg, 0.5 h
Experimental: Tissue distribution was determined in female rats (partially pigmented and non-pigmented) using [^14C]-estetrol.
A group of six female Lister Hooded rats each received a single oral dose of [^14C]-estetrol. At each selected time (see below) one animal was killed (by overdose of CO2) followed by immediate snap freezing in hexane/solid CO2. The carcasses were retained for examination of the tissue distribution of radioactivity using the technique of quantitative whole body autoradiography (QWBA).
Times for analysis were: (0.5, 8, and 24 hours, 7, 14 and 35 days).
Frozen carcasses were subjected to whole-body autoradiography.
Where concentrations are reported, radioactivity was assumed to be associated with [^14C]-estetrol or any metabolic products derived from [^14C]-estetrol. The specific activities of the dosed test compounds were used for the calculation of concentrations in all cases. Recoveries of radioactivity are reported as percentage of administered radioactivity (% dose). Radioactivity concentrations are also reported as μg equivalents/g.

[2] = tested on: alkaline phosphatase in dermal papilla (DP); assay: Hair follicle organ culture: alkaline phosphatase activity, DP inductivity; assay type: cell-based, human; conditions: all tested concentrations, vs vehicle
Experimental: (§1) 12-44 full-length frontotemporal hair follicles (HF) were obtained from four human female donors >50 years old. Donors were caucasian female subjects […], respectively (Donor 1: 12 temporal anagen HFs; Donor 2: 29; Donor 3: 44; Donor 4: 32). After microdissection from skin as described (Edelkamp et al., Methods Mol Biol, 2020, 2154:105-119; and Langan et al., Exp Dermatol, 2015, December; 24(12):903-1), HFs were placed in adequate culture medium and allowed a 24 h rest period to allow them to recover from the trauma of microdissection. Test substance (either vehicle (0.3% EtOH) or E4 at concentrations of 30 μM, 3 μM or 300 nM) was added to the medium at the end of the 24 h. Total culturing time was 5-7 days depending on the studied parameters and the experimental question. The experimental design for the hair follicle organ culture experiment is depicted in FIG. 12. Longer term culture experiments may be used to analyze the capacity to delay the onset of catagen.
Alkaline phosphatase is an indicator of DP inductivity (Yang, J Dermatol Sci, 2010, January; 57(1):2-11). Alkaline phosphatase in situ activity was measured in the DP.

human dermal fibroblasts = assay: Wound healing gene expression RT-qPCR array, fibroblasts; assay type: cell-based; conditions: 10^−7M, 15 h, relative to ethanol control
Source text: The healing properties of E4 were investigated at the transcriptional level by studying gene expression changes by RT-qPCR. 84 genes qPCR arrays focusing on the wound healing process were used. These arrays contain genes important for the three phases of wound healing process, including extra-cellular matrix (ECM) remodeling factors, inflammatory cytokines and chemokines as well as growth factors and major signaling molecules. The changes in gene expression were interpreted in a dermo cosmetic context in order to highlight the potential benefits of the E4 towards wound healing.
After 24 h seeded on 25 cm^2 culture flasks (T25), cells were treated with E4 during 15 h. The culture conditions were the same as the one used for the scratch test (see Example 2) and cells were treated with E4 in absence of FBS/HKGS. The cell density used for gene expression assay was lower than the ones used for the scratch tests: 15 800 cells/cm^2 for gene expression assay vs 113 636 cell/cm^2 for keratinocytes and 100 000 cells/cm^2 for fibroblasts in culture inserts for wound closure assay.
At the end of the 15 h treatment with E4 10^−7M or ethanol 0.1% used as control, total RNAs were extracted using the Qiagen RNeasy kit (Qiagen). Cells were rinsed with cold PBS and lysed in the ad hoc buffer provided in the kit. Extraction was performed according to the supplier's recommendations. The collected RNAs were stored at −80° C.
The RNA concentration was determined by spectrophotometric measurement (QIAxpert, Qiagen) and the RNA quality was analyzed by capillarity electrophoresis (Agilent Bioanalyzer 2100—Agilent RNA 6000 Nano Kit).
Reverse transcription was performed with kit “RT2 First Strand Kit” (Qiagen) from total RNA according to the manufacturer's instructions.
The qPCR method was used to quantify the expression changes of specific markers in the cDNA populations. The arrays “RT2 Profiler PCR Array human wound healing” containing specific primers for 84 target genes.
The amplification of target genes was performed following the supplier's recommendations thanks to a “HotStart Taq DNA Polymerase” and to the use of SYBR Green as detection method. The SYBR Green is a marker emitting fluorescence once inserted between the paired bases of nucleic acids. The fluorescence intensity is thus directly proportional to the quantity of produced amplicons.
The qPCRs were run using the Quantstudio7 Real-Time PCR System (Applied Biosystems) and its software (QuantStudio real time PCR Software v1.3. software, Applied Biosystems).
The data obtained for E4 treated conditions were compared to the ethanol control in both cell types. The threshold cycles (Ct) values were normalized to the mean of Ct of several housekeeping genes present on the array (indicated in the table below). The maximum Ct cut-off value was fixed at 36 cycles meaning that Ct values above 36 were not considered in the analysis.

[3] = tested on: human hair follicles (HF); assay: Hair follicle organ culture: LDH release into the medium; assay type: cell-based; conditions: all tested concentrations (300 nM, 3 μM, 30 μM)
Experimental: as §1
LDH is released from the cytoplasm of damaged cells into the culture medium. Therefore, the cytotoxicity of agents can be estimated based on the activity of LDH present in the culture medium using a colorimetric assay (Cytotoxicity Detection Kit [LDH], Roche) as described (Gherardini et al Int J Cosmet Sci, 2019, April; 41(2):164-182). […]

[4] = tested on: versican in dermal papilla (DP); assay: Hair follicle organ culture: versican expression, DP inductivity; assay type: cell-based, human; conditions: all tested concentrations, vs vehicle
Experimental: as §1
Versican, a large chondroitin sulfate proteoglycan molecule, is expressed in DP in anagen HFs and diminishes in catagen HFs and its expression correlates with hair inductive properties (Yang, J Dermatol Sci 2010). Versican intensity was analyzed in the DP.

[5] = tested on: primary human epidermal keratinocytes; assay: Keratinocyte scratch assay; assay type: cell-based; conditions: 10^−10M and 10^−7M, culture condition with 15% HKGS, compared with E2
Experimental: Human skin was transferred to the laboratory in holding media (DMEM containing 4% penicillin-streptomycin and Amphotericin B solution) within 30 minutes of collection. Once defatted, the skin was rinsed in HBSS with 4% PSA followed by DPBS without antibiotics, then cut into thin strips and floated on 0.2% Dispase II in DPBS overnight at 4° C., followed by manual separation of the epidermis from the dermis. Primary human epidermal keratinocytes and primary human dermal fibroblasts were then isolated.
(§2) Confluent wells of both primary keratinocytes and fibroblasts were subjected to a highly validated scratch wounding procedure (using a 1 mL sterile filter tip). Post-scratching, cells were rinsed with DPBS and cell-specific media containing treatments added to each well. Cells were imaged on a ptychographic live cell imaging platform (Livecyte 2TM, Phasefocus) for 24-48 hours. Automated tracking of individual unlabeled cells will be combined with 3D cell measurements to quantify a range of wound-relevant cell parameters including scratch closure rate.
(§3) Dose range finding experiments were conducted with E4 (10^−10M to 10^−6M) and E2 with and without Mitomycin C (MMC, to inhibit proliferation) using vehicle as negative controls.

[6] = tested on: fibroblasts isolated from female C57Bl1/6 mice; assay: Fibroblast monolayer scratch assay, mouse; assay type: cell-based; conditions: 10^−7 M, compared with E2
Experimental: as §2, §3
The assay was performed in the phenol red-free cell culture media containing charcoal stripped fetal bovine serum, using fibroblasts isolated from female C57Bl1/6 mice and from surplus abdominal skin donated by three female donors.

Total amount of radioactivity in tissue, Skin (non-pigmented) [1]: 1.1 % dose administered/tissue | Total amount of radioactivity in tissue, Skin (pigmented) [1]: 1.7 % dose administered/tissue
Compound: C[C@]12CC[C@@H]3c4ccc(O)cc4CC[C@H]3[C@@H]1[C@@H](O)[C@@H](O)[C@@H]2O [E4, 1,3,5 (10)-estratrien-3,15alpha,16alpha,17beta-tetrol]
alkaline phosphatase activity in DP cells [2]: tendentially increased | COL1A2 (Collagen alpha-2(I) chain) expression, FC (human dermal fibroblasts): 0.9445 Fold Change (FC) | CTGF (CCN family member 2) expression, FC (human dermal fibroblasts): 0.7643 Fold Change (FC) | MAPK1 (Mitogen-activated protein kinase 1) expression, FC (human dermal fibroblasts): 0.9284 Fold Change (FC) | MMP7 (Matrix metalloproteinase-7; Matrilysin) expression, FC (human dermal fibroblasts): 1.1451 Fold Change (FC) | SERPINE1 (Plasminogen activator inhibitor 1) expression, FC (human dermal fibroblasts): 0.8516 Fold Change (FC) | VTN (Vitronectin) expression, FC (human dermal fibroblasts): 0.7652 Fold Change (FC) | WNT5A (Protein Wnt-5a) expression, FC (human dermal fibroblasts): 0.8930 Fold Change (FC) | HF cytotoxicity (LDH release into the medium) [3]: did not induce HF cytotoxicity | versican expression in DP cells [4]: tendentially increased | impact on keratinocyte migration, scratch assay [5]: seems higher than the impact of E2 | in vitro wound closure, mouse fibroblasts scratch assay [6]: promotes in vitro wound closure to a similar extent as E2
